Test results reported in US11059784B2, “Oxime ether compounds” (BRISTOL-MYERS SQUIBB COMPANY, priority 2017, dated 2021).

Tests used:
[1] = molecular target: T1, S1P1 (Homo sapiens (Human), UniProt P21453); experiment: S1P1 Binding Assay (33P-S1P ligand competition, CHO membranes); settings: membranes from CHO cells expressing human S1P1
Description: Membranes were prepared from CHO cells expressing human S1P1. Cells pellets (1×10^9 cells/pellet) were suspended in buffer containing 20 mM HEPES (4-(2-hydroxyethyl)-1-piperazineethanesulfonic acid), pH 7.5, 50 mM NaCl, 2 mM EDTA (ethylenediamine tetraacetic acid) and Protease Inhibitor cocktail (Roche), and disrupted on ice using the Polytron homogenizer. The homogenate was centrifuged at 20,000 rpm (48,000 g) and the supernatant was discarded. The membrane pellets were resuspended in buffer containing 50 mM HEPES, pH 7.5, 100 mM NaCl, 1 mM MgCl2, 2 mM EDTA and stored in aliquots at −80° C. after protein concentration determination.
Membranes (2 μg/well) and 0.03 nM final concentration of ^33P-S1P ligand (1 mCi/ml, Perkin Elmer or American Radiolabeled Chemicals) diluted in assay buffer (50 mM HEPES, pH7.4, 5 mM MgCl2, 1 mM CaCl2), 0.5% fatty acid free BSA (bovine serum albumin), 1 mM NaF) were added to the compound plates (384 Falcon v-bottom plate (0.5 μl/well in a 11 point, 3-fold dilution). Binding was performed for 45 minutes at room temperature, terminated by collecting the membranes onto 384-well Millipore FB filter plates, and radioactivity was measured by TOPCOUNT®. The competition data of the test compounds over a range of concentrations was plotted as percentage inhibition of radioligand specific binding. The IC50 is defined as the concentration of competing ligand needed to reduce specific binding by 50%.

[2] = molecular target: S1P3 (Homo sapiens (Human), UniProt Q99500); experiment: Receptor [35S] GTPγS Binding Assay, S1P3; format: biochemical; settings: membranes from EDG3-Gal5-bla HEK293T cells
Description: (§1) Receptor [^35S] GTPγS Binding Assays:
(§2) Compounds were loaded in a 384 Falcon v-bottom plate (0.5 μl/well in an 11 point, 3-fold dilution). Membranes prepared from S1P1/CHO cells or EDG3-Gal5-bla HEK293T cells (EDG3 equivalent S1P3) were added to the compound plate ([…], final protein 3 μg/well) with MULTIDROP®. [^35S]GTP (1250 Ci/mmol, Perkin Elmer) was diluted in assay buffer: 20 mM HEPES, pH7.5, 10 mM MgCl2, 150 mM NaCl, 1 mM EGTA (ethylene glycol tetraacetic acid), 1 mM DTT (Dithiothreitol), 10 μM GDP, 0.1% fatty acid free BSA, and 10 μg/ml Saponin to 0.4 nM. 40 μl of the [35S] GTP solution was added to the compound plate with a final concentration of 0.2 nM. The reaction was kept at room temperature for 45 min. At the end of incubation, all the mixtures in the compound plate were transferred to Millipore 384-well FB filter plates via the VELOCITY11 ® Vprep liquid handler. The filter plate was washed with water 4 times by using the manifold Embla plate washer and dried at 60° C. for 45 min. MicroScint 20 scintillation fluid (30 μl) was added to each well for counting on the Packard TOPCOUNT®. EC50 is defined as the agonist concentration that corresponds to 50% of the Ymax (maximal response) obtained for each individual compound tested.

[3] = molecular target: T1, S1P1; experiment: Receptor [35S] GTPγS Binding Assay, S1P1; format: biochemical; settings: membranes from S1P1/CHO cells
Description: as §1, §2
A smaller value for GTPγS S1P1 EC50 value indicated greater activity for the compound in the GTPγS S1P1 binding assay. Thus the compounds of the present invention may be used in treating, preventing, or curing various S1P1 receptor-related conditions. The compounds have potential use in treating, preventing, or curing autoimmune and inflammatory diseases such as multiple sclerosis, rheumatoid arthritis, inflammatory bowel disease, lupus, psoriasis, or minimizing or reducing rejection of transplanted organs.

T1 sequence (P21453 whole entry): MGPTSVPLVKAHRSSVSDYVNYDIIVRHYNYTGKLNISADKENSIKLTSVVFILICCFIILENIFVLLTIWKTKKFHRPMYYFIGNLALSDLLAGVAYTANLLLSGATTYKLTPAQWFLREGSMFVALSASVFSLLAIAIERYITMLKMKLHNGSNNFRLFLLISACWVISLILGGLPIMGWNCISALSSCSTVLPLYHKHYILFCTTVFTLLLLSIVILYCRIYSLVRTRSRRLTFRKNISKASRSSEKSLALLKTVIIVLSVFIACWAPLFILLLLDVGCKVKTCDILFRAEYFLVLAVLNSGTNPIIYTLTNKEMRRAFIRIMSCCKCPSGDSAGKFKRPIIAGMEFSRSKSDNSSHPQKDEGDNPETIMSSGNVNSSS
Sequence of S1P3 (Q99500 whole entry): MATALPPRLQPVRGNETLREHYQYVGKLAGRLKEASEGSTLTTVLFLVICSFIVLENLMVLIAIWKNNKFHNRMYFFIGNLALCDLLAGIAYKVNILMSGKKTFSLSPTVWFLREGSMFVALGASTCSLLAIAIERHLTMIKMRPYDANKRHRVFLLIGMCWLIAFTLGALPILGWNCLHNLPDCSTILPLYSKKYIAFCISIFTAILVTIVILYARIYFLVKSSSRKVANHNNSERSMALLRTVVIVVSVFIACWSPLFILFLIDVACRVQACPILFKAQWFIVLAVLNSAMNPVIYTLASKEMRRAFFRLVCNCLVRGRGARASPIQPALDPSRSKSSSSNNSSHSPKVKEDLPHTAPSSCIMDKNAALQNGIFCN

IC50 [1] [nM]	EC50 [2] [nM]	EC50 [3] [nM]	Compound
10.5	> 3130	136	C/C(=N\OCc1ccc(C2CCCCC2)c(C(F)(F)F)c1)c1ccc(C(=O)N2CCC(N)(COP(=O)(O)O)C2)cc1 (single isomer, unassigned) [Example 59, (E)-(3-amino-1-(4-(1-(((4-cyclohexyl-3-(trifluoromethyl)benzyl)oxy)imino)ethyl)benzoyl)pyrrolidin-3-yl)methyl dihydrogen phosphate]
28.4	> 6250	434	C/C(=N\OCc1ccc(C2CCCCC2)c(C(F)(F)F)c1)c1ccc(C(=O)N2CCC(N)(COP(=O)(O)O)C2)cc1 (single isomer, unassigned) [Example 60, (E)-(3-amino-1-(4-(1-(((4-cyclohexyl-3-(trifluoromethyl)benzyl)oxy)imino)ethyl)benzoyl)pyrrolidin-3-yl)methyl dihydrogen phosphate]
126	> 6250	204	C/C(=N\OCCCc1ccccc1)c1ccc(C(=O)N2CCC(N)(COP(=O)(O)O)C2)cc1 (single isomer, unassigned) [Example 61, (E)-(3-amino-1-(4-(1-((3-phenylpropoxy)imino)ethyl)benzoyl)pyrrolidin-3-yl)methyl dihydrogen phosphate]
1470	> 6250	504	C/C(=N\OCCCc1ccccc1)c1ccc(C(=O)N2CCC(N)(COP(=O)(O)O)C2)cc1 (single isomer, unassigned) [Example 62, (E)-(3-amino-1-(4-(1-((3-phenylpropoxy)imino)ethyl)benzoyl)pyrrolidin-3-yl)methyl dihydrogen phosphate]
183	> 6250	342	CC/C(=N\OCCCc1ccccc1)c1ccc(C(=O)N2CCC(N)(COP(=O)(O)O)C2)cc1 (single isomer, unassigned) [Example 63, (E)-(3-amino-1-(4-(1-((3-phenylpropoxy)imino)propyl)benzoyl)pyrrolidin-3-yl) methyl dihydrogen phosphate]
2530	> 6250	500	CC/C(=N\OCCCc1ccccc1)c1ccc(C(=O)N2CCC(N)(COP(=O)(O)O)C2)cc1 (single isomer, unassigned) [Example 64, (E)-(3-amino-1-(4-(1-((3-phenylpropoxy)imino)propyl)benzoyl)pyrrolidin-3-yl) methyl dihydrogen phosphate]
62	9370	194	C/C(=N\OCc1ccc(C2CCCCC2)c(C(F)(F)F)c1)c1ccc(C(=O)N2CCCC(N)(COP(=O)(O)O)C2)cc1 (single isomer, unassigned) [Example 66, (E)-(3-amino-1-(4-(1-(((4-cyclohexyl-3-(trifluoromethyl)benzyl)oxy)imino)ethyl)benzoyl)piperidin-3-yl)methyl dihydrogen phosphate]
120	> 18000	754	C/C(=N\OCc1ccc(C2CCCCC2)c(C(F)(F)F)c1)c1ccc(C(=O)N2CCCC(N)(COP(=O)(O)O)C2)cc1 (single isomer, unassigned) [Example 67, (E)-(3-amino-1-(4-(1-(((4-cyclohexyl-3-(trifluoromethyl)benzyl)oxy)imino)ethyl)benzoyl)piperidin-3-yl)methyl dihydrogen phosphate]
362	9370	399	C/C(=N\OCCCc1ccccc1)c1ccc(C(=O)N2CCCC(N)(COP(=O)(O)O)C2)cc1 (single isomer, unassigned) [Example 68, (E)-(3-amino-1-(4-(1-((3-phenylpropoxy)imino)ethyl)benzoyl)piperidin-3-yl)methyl dihydrogen phosphate]
899	–	767	C/C(=N\OCCCc1ccccc1)c1ccc(C(=O)N2CCCC(N)(COP(=O)(O)O)C2)cc1 (single isomer, unassigned) [Example 69, (E)-(3-amino-1-(4-(1-((3-phenylpropoxy)imino)ethyl)benzoyl)piperidin-3-yl)methyl dihydrogen phosphate]
49.6	> 30000	44.4	C/C(=N\OCCc1ccccc1)c1ccc(C2CC[C@](N)(COP(=O)(O)O)C2)cc1 (stereo in doubt) [Example 73, ((1R,3R)-1-amino-3-(4-((E)-1-(phenethoxyimino)ethyl)phenyl)cyclopentyl)methyl dihydrogen phosphate]
284	> 30000	> 30000	CC(=NOCC1CC1)c1ccc([C@@H]2CC[C@](N)(COP(=O)(O)O)C2)cc1 [Example 38, ((1R,3R)-1-amino-3-(4-(1-((cyclopropylmethoxy)imino)ethyl)phenyl)cyclopentyl)methyl Dihydrogen Phosphate]
865	–	–	CC(=NOCc1ccccc1)c1ccc([C@@H]2CC[C@](N)(COP(=O)(O)O)C2)cc1 [Example 39, ((1R,3R)-1-amino-3-(4-(1-((benzyloxy)imino)ethyl)phenyl)cyclopentyl)methyl dihydrogen phosphate]
28.3	> 60000	38.1	C/C(=N\OCc1ccc(C2CCCCC2)c(C(F)(F)F)c1)c1ccc([C@@H]2CC[C@](N)(COP(=O)(O)O)C2)cc1 [Example 40, ((1R,3R)-1-amino-3-(4-((E)-1-(((4-cyclohexyl-3-(trifluoromethyl)benzyl)oxy)imino)ethyl)phenyl)cyclopentyl) methyl dihydrogen phosphate]
20	773	25.3	C/C(=N\OCCCc1ccccc1)c1ccc([C@@H]2CC[C@](N)(COP(=O)(O)O)C2)cc1 [Example 41, ((1R,3R)-1-amino-3-(4-((E)-1-((3-phenylpropoxy)imino)ethyl)phenyl)cyclopentyl) methyl dihydrogen phosphate]
–	> 30000	17.6	CC(=NOCc1ccc([N+](=O)[O-])cc1)c1ccc([C@@H]2CC[C@](N)(COP(=O)(O)O)C2)cc1 [Example 42, ((1R,3R)-1-amino-3-(4-(1-(((4-nitrobenzyl)oxy)imino)ethyl)phenyl)cyclopentyl) methyl dihydrogen phosphate]
–	> 30000	26.4	CC(=NOCc1ccc(F)cc1)c1ccc([C@@H]2CC[C@](N)(COP(=O)(O)O)C2)cc1 [Example 43, ((1R,3R)-1-amino-3-(4-(1-(((4-fluorobenzyl)oxy)imino)ethyl)phenyl)cyclopentyl) methyl dihydrogen phosphate]
15.1	> 60000	20.3	CC(=NOCC1CCCCC1)c1ccc([C@@H]2CC[C@](N)(COP(=O)(O)O)C2)cc1 [Example 44]
14.2	–	–	COc1cccc(/C(C)=N/OCc2ccc([C@H]3CC[C@](N)(COP(=O)(O)O)C3)cc2)c1 [Example 54, ((1R,3S)-1-amino-3-(4-(((((E)-1-(3-methoxyphenyl)ethylidene)amino)oxy)methyl)phenyl)cyclopentyl) methyl dihydrogen phosphate]
–	> 60000	1560	CC(=NOCCc1ccccc1)c1ccc(C(=O)N2CCC(N)(COP(=O)(O)O)C2)cc1 (stereo not drawn) [Example 55, (3-amino-1-(4-(1-(phenethoxyimino)ethyl)benzoyl)pyrrolidin-3-yl)methyl Dihydrogen Phosphate]
–	> 60000	295	C/C(=N\OCCc1ccccc1)c1ccc(C(=O)N2CCC(N)(COP(=O)(O)O)CC2)cc1 [Example 56, (4-amino-1-(4-(1-(phenethoxyimino)ethyl)benzoyl)piperidin-4-yl)methyl dihydrogen phosphate]
